Laboratory results: patent US9334267B2, “RAF inhibitor compounds” (Deciphera Pharmaceuticals, LLC, priority 2012, dated 2016)
Where two headings read alike, the source gives them in different places.

Assays:
[1] = system: A375res cells; experiment: Proliferation assay in vemurafenib-resistant melanoma cells A375res; conditions: 72 hour proliferation assay
[2] = system: A375res cells
[3] = system: phospho-ERK in HCT-116 cells; experiment: HCT-116 cell pERK assay (AlphaScreen SureFire); format: cell-based; conditions: B-Raf wild type, K-Ras mutation
Method: Examples of Formula I are tested against HCT-116 cells harboring wild type B-Raf and K-Ras mutation. The phospho-ERK activities are evaluated as described below.
HCT-116 cells (catalog #CCL-247) are obtained from the American Type Culture Collection (ATCC, Manassas, Va.). Briefly, cells are grown in McCoy's 5A supplemented with 10% characterized fetal bovine serum (Invitrogen, Carlsbad, Calif.), and 1% Penicillin/Streptomycin/L-Glutamine at 37 degrees Celsius, 5% CO2, and 95% humidity. Cells are allowed to expand until reaching 75-90% confluency at which point they are subcultured or harvested for assay use. HCT-116 cells suspended in complete media are added to 384-well tissue culture treated plates (3×10^5 cells/mL; 7,500 cells per well). The cells are incubated overnight at 37 degrees Celsius, 5% CO2, and 95% humidity. Next, test compound or DMSO diluted in complete media is added to the wells (0.25% final DMSO concentration). The plates are then incubated for 4 hours at 37 degrees Celsius, 5% CO2, and 95% humidity. Following compound incubation, the cells are lysed at 4° C. for 20 minutes with shaking. Cell lysates are centrifuged and the supernatant is transferred to a new plate. An aliquot of each lysate is transferred to a white 384-well assay plate. Using the AlphaScreen SureFire pERK kit (Perkin-Elmer, Waltham, Mass.), an acceptor bead mixture is added to each well and incubated for 2 h at room temperature in the dark. A donor bead mixture is then added to each well and incubated for 2 h at room temperature in the dark. Plates are read using a Synergy2 plate reader (Biotek, Winooski, Vt.) in Plate Mode with Timing Control. Read: (F)1: excitation: 680/30 nm, emission: Plug. 2: Excitation: Plug, emission: 570/100 nm. Top mirror 635 nm. Data is analyzed using Prism software (Graphpad, San Diego, Calif.) to calculate IC50 values and Excel software (Microsoft, Redmond, Wash.) to calculate stimulation compared to control.

| IC50 shift A375 to A375res [2] | Compound | IC50 shift A375 to A375res [1] | concentrations at which the pERK signal is stimulated [3] |
| --- | --- | --- | --- |
| – | CCCS(=O)(=O)Nc1ccc(F)c(C(=O)c2c[nH]c3ncc(Cl)cc23)c1F [PLX4720, reference compound] | more than 27 fold | – |
| more than 57 fold | CCCS(=O)(=O)Nc1ccc(F)c(C(=O)c2c[nH]c3ncc(-c4ccc(Cl)cc4)cc23)c1F [vemurafenib, reference compound] | – | up to 3 uM |
